Results published in patent US20040248837A1, “Methods of treating pulmonary fibrotic disorders” (priority 2002, published 2004).

Key:
[1] = system: mice repetitively challenged with OVA; experiment: Airway responsiveness to MCh in vivo (Penh, whole body plethysmograph); parameters: species or system BALB/c mice; details: pilot experiments
Description: Female BALB/c mice (16 mice/group) (The Jackson Laboratory, Bar Harbor, Me.) were used when they reached 8-10 wk of age. Mice were immunized s.c. on days 0, 7, 14, and 21 with 25 μg of OVA (OVA, grade V; Sigma) adsorbed to 1 mg of alum (Aldrich) in 200 μl normal saline. Intranasal OVA challenges (20 ng/50 μl in PBS) were administered on days 27, 29 and 31 under isoflurane (Vedco, Inc. St Joseph, Mo.) anesthesia. Intranasal OVA challenges were then repeated twice a week for 1, 3, or 6 months (see FIG. 1 for protocol). Age and sex matched control mice were sensitized but not challenged with OVA during the 1, 3, or 6 month study. Mice were sacrificed 24 hours after the final OVA challenge and bronchoalveolar lavage fluid and lungs were analyzed. […]
Airway responsiveness was assessed 24 hrs after the final OVA challenge (after 1, 3, or 6 months of repetitive OVA challenges), using a single chamber whole body plethysmograph obtained from Buxco (Troy, N.Y.), as previously described in this laboratory. […] The enhanced pause (Penh) correlates closely with pulmonary resistance measured by conventional two-chamber plethysmography in ventilated mice. […] The Penh values measured during each 3-min sequence were averaged and are expressed for each MCh concentration as the percentage of baseline Penh values following PBS exposure (Broide et al. supra).

[2] = system: mice repetitively challenged with OVA; experiment: BAL eosinophil counts; assay type: in vivo, BALB/c mice; details: pilot experiments
Description: (§1) Female BALB/c mice (16 mice/group) (The Jackson Laboratory, Bar Harbor, Me.) were used when they reached 8-10 wk of age. Mice were immunized s.c. on days 0, 7, 14, and 21 with 25 μg of OVA (OVA, grade V; Sigma) adsorbed to 1 mg of alum (Aldrich) in 200 μl normal saline. Intranasal OVA challenges (20 ng/50 μl in PBS) were administered on days 27, 29 and 31 under isoflurane (Vedco, Inc. St Joseph, Mo.) anesthesia. Intranasal OVA challenges were then repeated twice a week for 1, 3, or 6 months (see FIG. 1 for protocol). Age and sex matched control mice were sensitized but not challenged with OVA during the 1, 3, or 6 month study. Mice were sacrificed 24 hours after the final OVA challenge and bronchoalveolar lavage fluid and lungs were analyzed.
Throughout the Examples, therapeutic nucleic acids are referred to as “ISS.” ISS or diluent control was administered intraperitoneally (i.p.) starting 1 day before the first intranasal OVA challenge on day 26, and then continued every other week 1 day before intranasal challenges for 1, 3, or 6 months (see FIG. 1). All animal experimental protocols were approved by the University of California, San Diego Animal Subjects Committees. […]

[3] = system: mice repetitively challenged with OVA; experiment: Quantification of airway remodeling (pilot experiments); assay type: in vivo, BALB/c mice
Description: as §1
Different groups of mice (16 mice/group) were administered i.p. endotoxin-free (<1 ng/mg DNA) phosphorothioate ISS-ODN (5′-[…]-3′; SEQ ID NO:01) (Trilink, San Diego, Calif.) (100 μg in 100 μl of sterile, endotoxin-free PBS), M-ODN (5′-[…]-3′; SEQ ID NO:02) which lacks the CpG motif present in ISS, or diluent control starting 1 day before the first intranasal OVA challenge on day 27, and then continuing every other week 1 day before intranasal challenges for 1, 3, or 6 months. […]

[4] = system: mice repetitively challenged with OVA; details: previous studies in our laboratory; administered 1 day before OVA challenge; cited from earlier work
ITGβ6 = ITGβ6 (β6 integrin) gene transcription in lung tissue, RT-PCR; assay type: in vivo, C57BL/6 mice; details: B6 mice, i.v., 24 hrs; Pam3Cys 25 μg, polyI:C 25 μg, LPS 5 μg, TOG 2 mg, R848 18 μg, ISS 20 μg
Description: Twenty μg ISS was injected intravenously (i.v.) into C57BL/6 mice. At 0 hours, 2 hours, 4 hours, 8 hours, 16 hours, and 24 hours after injection, mice were killed and total RNA was isolated from lung. Transcription levels of IGFβ6 (β6 integrin) was analyzed by reverse transcription-polymerase chain reaction (RT-PCR). TNFα, IDO (2,3-indoleaminedioxygenase) and TGFβ1 were used as controls. […] Transcription of the other subunit of ITGαvβ6 (or αvβ6 integrin), i.e., ITGαv, was also analyzed by RT-PCR.
The long-term effect of ISS on gene expression in lung tissue was investigated. Twenty μg ISS was injected i.v. into C57 BL/6 mice. At 0 days, 1 day, 2 days, 3 days, 4 days, and 5 days post injection, mice were killed and total RNA was isolated from lung tissue. Transcription levels were analyzed by RT-PCR. […] The suppression of TGF-β activity was observed indirectly by the induction of MMP-12 (elastase) gene. Under normal conditions, MMP-12 expression is suppressed by TGF-β. […] In contrast, no change in mRNA levels of MMP-9 (gelatinase) was observed.
The kinetics of suppression of gene expression by ISS was analyzed. […] The level of ITGαv mRNA dropped to 20% of the initial levels within 30 minutes after i.v. injection of ISS.
MyD88 is a component of the TLR signaling pathway. It was shown that down-regulation of ITGβ6 gene transcription by ISS in lung tissue is dependent on MyD88. ISS suppressed ITGβ6 gene transcription in normal control mice, but not in MyD88^−/− mice.
Suppression of ITGβ6 gene transcription in lung tissue by a variety of TLR ligands was examined. Six different TLR ligands (Pam3Cys, 25 μg; polyI:C, 25 μg; LPS, 5 μg; TOG, 2 mg; R848, 18 μg; and ISS, 20 μg) were individually injected i.v. into B6 mice. After 24 hrs, mice were sacrificed and total RNA was isolated form lung tissue, and the level of ITGβ6 gene transcription in lung tissue was analyzed by RT-PCR. Each TLR agonist inhibited ITGβ6 gene transcription in lung tissue.

Row | Compound | OVA induced airway responsiveness [1] | OVA induced eosinophilic inflammation [2] | features of airway remodeling [3] | OVA induced airway hyperreactivity [4] | ITGβ6 gene transcription in lung tissue (ITGβ6)
1 | M-ODN: 5′-TGACTGTGAAGGTTGGAGATGA-3′ (SEQ ID NO:02), which lacks the CpG motif present in ISS (DNA, backbone and methylation of C not given here) | did not inhibit | did not inhibit | did not inhibit | not | 
2 | tripalmitoyl-S-glyceryl cysteine [Pam3Cys] |  |  |  |  | inhibited
3 | polyI:C |  |  |  |  | inhibited
4 | Nc1nc2c(sc(=O)n2[C@@H]2O[C@H](CO)[C@@H](O)[C@H]2O)c(=O)[nH]1 [TOG, 7-thia-8-oxo-guanosine] |  |  |  |  | inhibited
